“Also recorded” adds a separate entry of the source. Read-outs that look alike come from different tables or passages of the source.

The test system of series [1] is pancreas. As to the kind of experiment: pancreas pathology / toxicity after intra-arterial sP injection in rodents. The class given is in vivo, mouse. An excerpt: Both islets are surrounded by normal exocrine pancreas tissue without any lesions typical for pancreatitis.
For disease induction, the standard experimental pancreatitis model employs multiple high dose injections of the toxic secretagogue caerulein (Koh et al., J. Cell. Mol. Med. 15, 2139-2149 (2011)).

For series [2], the system named is pancreas. As to the kind of experiment: large animal study of pancreatic sP injection via the celiac artery. The class given is in vivo, dog. As for the experimental part: A large animal study in dogs has recently been completed, seeking evidence for sP-induced pancreas toxicity following pancreatic injection of sP via the celiac artery. […] The injections were conducted by the Sick Kids' clinical imaging team. Since this VanilloidGenetics-sponsored study is unlikely to be published by itself, excerpt imaging data are provided in the Protocol Addendum, showing the pancreas-selective, rapidly transient (˜7 min) sP effect as measured with a co-injected, inert blue dye marker. The short-lived, physiological sP responses (hyperemia→pancreas→selective hyperperfusion and extravasation→normal pancreas appearance) illustrate the core effects expected to be duplicated in T1D patients.
A large animal study of pancreatic sP injection in dogs, using modern pancreatitis diagnostics is currently being conducted (Mansfield et al., J. Vet. Diagn. Invest. 23, 691-697 (2011)) and histopathology for the detection of possible pancreatitis lesions. Data are expected to be complete within about two weeks of this writing, in time for the anticipated Pre-CTA meeting. Dogs are a rational choice of large animal experimental model, since Dogs spontaneously develop pancreatitis, have successfully been used in studies of experimental pancreatitis and well tested diagnostics are available (Trivedi et al., J. Vet. Intern. Med. 25, 1241-1247 (2011)).

The test system of series [3] is pancreas. Particulars: intra-arterial injection, recent-onset diabetic mice, dose range 0.01-250 nmol/kg; cited from earlier work.
For series [4] the following is noted: cited from earlier work; for tissue half-life: in vivo.
For series [5] the following is noted: earlier and current trials, literature and trials registry, cited from earlier work.

On to `CSCC[C@H](NC(=O)[C@H](CC(C)C)NC(=O)CNC(=O)[C@H](Cc1ccccc1)NC(=O)[C@H](Cc1ccccc1)NC(=O)[C@H](CCC(N)=O)NC(=O)[C@H](CCC(N)=O)NC(=O)[C@@H]1CCCN1C(=O)[C@H](CCCCN)NC(=O)[C@@H]1CCCN1C(=O)[C@@H](N)CCCN=C(N)N)C(N)=O` [sP, substance P], for which, in the series with pancreas [1] (10, 50, 100 or 250 nmol/kg BW), the “tolerability in rodent studies” value is recorded as “well tolerated”. In addition, the “tissue damage or pancreatitis-like disease” value with pancreas [1] (sP injection without caerulein) was “does not cause tissue damage or pancreatitis-like disease”. Also, the “sP pancreas toxicity in rodents” value in the series with pancreas [1] (without caerulein pretreatment) is “has not been observed”. Further, in the series on pancreas [2] (10, 50, 100 or 250 nmol/kg BW), the “tolerability in canine studies” value is listed as “well tolerated”. Also, the “sP-induced pancreas toxicity in dogs” value in the series with pancreas [2] (celiac artery injection, study-relevant dose range, blood tests (>1200 assays) and histopathology) is “not pancreas toxic; also recorded: No drug-induced toxicity was found”. For the same compound, the “adverse events of sP celiac injections” value with pancreas [2] (entire canine study) was “without adverse events”. The “pancreas pathology consistent with pancreatitis” value in the series on pancreas [3] was “has not been observed”. The vascular half-life time in series [4] (as low as) is under 30 s; in series [4] (in some locales), “up to a minute”. Further, the tissue half-life is under 1 min in series [4] and “a minute or less” in series [4] (listed as substance P). Further, in series [4] (proteolytic degradation and binding to NK1R in tissue), the “time to inactivation in tissue” value is given as “within seconds”. The results for the “toxicity / adverse events in human clinical sP trials” value in series [5] and in series [5] (listed as substance P) were “without sP-attributable adverse events” and “lack of toxicity”, respectively.

Values taken from patent US9192647B2, “Method for reversing recent-onset type 1 diabetes (T1D) by administering substance P (sP)” (priority 2013, dated 2015).
